Data taken from PubChem BioAssay (NCI).
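Five compound concentrations were applied to cells in 96-well plates for 48 hours; endpoints were derived by simple linear interpolation of the resulting dose-response curve. GI50 is the concentration that inhibits growth by half. TGI denotes the concentration required for complete inhibition of growth.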

What was measured:
Test in all cases: NCI tumour cell line growth inhibition, 48 h
A498 renal = test system: A498 renal
A549 NSCLC = test system: A549 NSCLC
BT-549 breast = test system: BT-549 breast
EKVX NSCLC = test system: EKVX NSCLC
HCC-2998 colon = test system: HCC-2998 colon
K-562 leukemia = test system: K-562 leukemia
M14 melanoma = test system: M14 melanoma
MALME-3M melanoma = test system: MALME-3M melanoma
NCI-H460 lung = test system: NCI-H460 lung
NCI-H522 lung = test system: NCI-H522 lung
NCI/ADR-RES ovarian = test system: NCI/ADR-RES ovarian
OVCAR-8 ovarian = test system: OVCAR-8 ovarian
RXF 393 renal = test system: RXF 393 renal
SK-MEL-2 melanoma = test system: SK-MEL-2 melanoma
SNB-19 CNS = test system: SNB-19 CNS
SW-620 colon = test system: SW-620 colon
TK-10 renal = test system: TK-10 renal
UACC-62 melanoma = test system: UACC-62 melanoma

Row | Structure (SMILES) | TGI (A498 renal) | TGI (A549 NSCLC) | TGI (BT-549 breast) | TGI (EKVX NSCLC) | TGI (HCC-2998 colon) | TGI (K-562 leukemia) | TGI (M14 melanoma) | TGI (MALME-3M melanoma) | TGI (NCI-H460 lung) | TGI (NCI-H522 lung) | TGI (NCI/ADR-RES ovarian) | TGI (OVCAR-8 ovarian) | TGI (RXF 393 renal) | TGI (SK-MEL-2 melanoma) | TGI (SNB-19 CNS) | TGI (SW-620 colon) | TGI (TK-10 renal) | GI50 (UACC-62 melanoma) | TGI (UACC-62 melanoma)
1 | CC#Cc1cc2c(cc1O)CC[C@@H]1[C@@H]2CC[C@]2(C)[C@@H](O)CC[C@@H]12 | 27.9 µM | > 37.8 µM | 24.5 µM | 26 µM | 19.2 µM | > 100 µM | 17.7 µM | 18.3 µM | 20.2 µM | 2.71 µM | 10.3 µM | 19.9 µM | 13.8 µM | 15.1 µM | 29.1 µM | 11.1 µM | > 91.3 µM | 0.503 µM | 16.7 µM
2 | COC(=O)n1c(=O)n(-c2ccccc2)c(=O)n1C(=O)Nc1ccccc1 | > 100 µM | > 100 µM | > 100 µM | > 100 µM | > 100 µM | > 100 µM | > 100 µM | > 100 µM | > 100 µM | > 100 µM | > 100 µM | > 100 µM | > 100 µM | > 100 µM | > 100 µM | > 100 µM | > 100 µM |  | > 100 µM
3 | S=C(N/N=C(/c1ccccc1)c1ccccn1)Nc1ccc(Cl)cc1 | 9.4 µM | 14 µM | 9.94 µM | 15.5 µM | 10.9 µM | 0.581 µM | 2.81 µM | 10.6 µM | 5.53 µM | 11.5 µM | 14.3 µM | 3.19 µM | 7.87 µM | 4.91 µM | 20.7 µM | 11.1 µM | 8.3 µM |  | 7.65 µM
4 | C/C=C/C(C#N)(Cc1ccccc1)OP1(=O)OC(c2ccccc2)C(C)N1C (stereo not given) | > 100 µM | > 100 µM | > 100 µM | > 100 µM | > 100 µM | > 100 µM | > 100 µM | > 100 µM | > 100 µM | > 100 µM | > 100 µM | > 100 µM | > 100 µM | > 100 µM | > 100 µM | > 100 µM | > 100 µM |  | > 100 µM
5 | O=C(NCCNCCNCCNC(=O)c1cc(-c2ccccc2)nc2ccccc12)c1cc(-c2ccccc2)nc2ccccc12 | 9.68 µM | 18.6 µM | 21.9 µM | 18 µM | 3.1 µM | 4.12 µM | 3.39 µM | 3.31 µM | 3.4 µM | 3.13 µM | 29.3 µM | 3.85 µM | 4.34 µM | 3.08 µM | 8.93 µM | 3.31 µM | 11.4 µM |  | 3.97 µM
6 | NC1=CN(Cc2ccccc2)C2=N/C(=C\c3ccccc3)C(=O)N12 | > 100 µM | > 100 µM | > 100 µM | > 100 µM | > 100 µM | > 100 µM | > 100 µM | > 100 µM | > 100 µM | > 100 µM | > 100 µM | > 100 µM | > 100 µM | > 100 µM | > 100 µM | > 100 µM | > 100 µM |  | > 100 µM
7 | O=C(O)c1nc2ccccc2nc1Nc1ccc(F)cc1 | > 100 µM | > 100 µM | > 100 µM | > 100 µM | > 100 µM | 94.1 µM | > 100 µM | > 100 µM | > 100 µM | 82.4 µM | > 100 µM | > 100 µM | 51.8 µM | 76.5 µM | > 100 µM | > 100 µM | > 100 µM |  | 77.6 µM
8 | OCc1ccc2c(c1)CC1(C2)Cc2cc3c(cc2C1)CCC3 | 35.4 µM | > 100 µM | > 100 µM | > 100 µM | > 100 µM | > 100 µM | > 100 µM | > 100 µM | > 100 µM | > 27.6 µM | > 100 µM | > 100 µM | 28.5 µM | > 100 µM | > 100 µM | > 31.6 µM | > 79.6 µM |  | > 72.2 µM
9 | CCOC(=O)CCC(NC(=O)c1ccc(Nc2nc3ccccc3n3cccc23)cc1)C(=O)OCC (stereo not given) | > 100 µM | > 100 µM | 77.3 µM | > 100 µM | > 100 µM | > 100 µM | > 100 µM | > 100 µM | > 100 µM | 60 µM | 48.5 µM | 77.9 µM | 32.8 µM | 39.7 µM | > 100 µM | > 100 µM | 64.7 µM |  | 53.6 µM
10 | N#Cc1c(N)c2c(c(-c3ccccc3)c1-c1ccccc1)C(=O)N(NC(=O)c1ccccc1)C2=O | > 100 µM | > 100 µM | > 100 µM | > 100 µM | > 100 µM | > 100 µM | > 100 µM | > 100 µM | > 100 µM | > 100 µM | > 100 µM | > 100 µM | > 100 µM | > 100 µM | > 100 µM | > 100 µM | > 100 µM |  | > 100 µM
11 | Cc1ccc(C(CC(=O)C(C)(C)CN2CCCCC2)SCCS(=O)(=O)O)cc1 (stereo not given) | 48.7 µM | > 100 µM | > 100 µM | 66.5 µM | 83.3 µM | 51.4 µM | 50.1 µM | 73.2 µM | > 100 µM | 51.2 µM | 84.9 µM | 65.4 µM | 57.1 µM | 40.1 µM | > 100 µM | 62.8 µM | 86 µM |  | 46.8 µM
12 | CCCNC(C#N)c1ccc(OCCCCCCCCCCOc2ccc(C(C#N)NCCC)cc2)cc1 (stereo not given) | 42.7 µM | > 100 µM | > 100 µM | > 100 µM | > 100 µM | 76.3 µM | > 100 µM | > 100 µM | > 100 µM | > 100 µM | > 100 µM | > 100 µM | 65.1 µM | > 100 µM | > 100 µM | > 100 µM | 69.2 µM |  | > 100 µM
13 | CC[C@H](C)C1=C(O)[N@+]2([O-])Oc3ccc(-c4c(O)c(O)c(-c5ccc(OC(C)=O)cc5)c(OC(C)=O)c4OC(C)=O)cc3O[C@]2([C@@H](C)CC)C(=O)N1O | > 50 µM | > 50 µM | > 50 µM | > 50 µM | 24.5 µM | 31.5 µM | > 50 µM | > 50 µM | > 50 µM | 18 µM | > 50 µM | > 50 µM | > 50 µM | > 50 µM | > 50 µM | 23.6 µM | > 50 µM |  | > 50 µM
